From patent publication US9139581B2 (PORTOLA PHARMACEUTICALS, INC., priority 2008, dated 2015)
Like-named read-outs stand apart in the source and are kept apart here.

How the values were obtained:
JAK2 = target: T1, JAK2 (Homo sapiens, UniProt O60674); assay: Millipore Upstate KinaseProfiler screening, JAK2 catalytic activity; type: biochemical; conditions: Table 5; read-out: Inhibition (IC50%) of catalytic activity of JAK 2
T1 construct: purchased Millipore Upstate KinaseProfiler

Purified human JAK3 = target: T2, Purified human JAK3 (Homo sapiens, UniProt P52333); assay: Millipore Upstate KinaseProfiler screening, JAK3 catalytic activity; type: biochemical; conditions: for IC50: Table 5, read-out: Inhibition (IC50%) of catalytic activity of JAK 3; for inhibition at 0.3 µM: 0.3 μM compound
T2 construct: purchased Millipore Upstate KinaseProfiler; host or cells: insect cells
Method: This assay is a direct measurement of the effect of compound on the catalytic activity of JAK3. Purified human JAK3 (GenBank AF513860) sequence (residue 781-C terminus) was obtained from insect cells. The catalytic hydrolysis of ATP is measured using a radiometric filter binding method. Incubation of kinase with ^33-[P]ATP and substrate leads to incorporation of ^33[P] into the substrate which can then be separated from the other reaction components by filtration. Assays were performed using 10 μM ATP and in the absence or presence of 1, 0.3, or 0.1 μM compound. Activity was expressed as % of inhibition of control.
In the table below, activity in the Jak assays is provided as follows: +++++=IC50<0.0010 μM; ++++=0.0010 μM<IC50<0.010 μM, +++=0.010 μM<IC50<0.10 μM, ++=0.10 μM<IC50<1 μM, +=IC50>1 μM.

JAK1 = target: T3, JAK1 (Homo sapiens, UniProt P23458); assay: Millipore Upstate KinaseProfiler screening, JAK1 catalytic activity; type: biochemical; conditions: Table 5; read-out: Inhibition (IC50%) of catalytic activity of JAK 1
T3 construct: purchased Millipore Upstate KinaseProfiler

[1] = target: T4, full length active recombinant SYK enzyme (Homo sapiens, UniProt P43405); assay: Inhibition of Syk tyrosine phosphorylation activity (LANCE TR-FRET); type: biochemical; conditions: 1 nM SYK, 100 μM ATP
T4 construct: full length active recombinant SYK enzyme (Millipore, Calif.); purchased Millipore
Summary of the method: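 The reaction is quenched with buffer holding Eu-anti-phosphotyrosine and streptavidin-APC, and detection runs 1 hr at room temperature. TR-FRET is read and IC50s come from non-linear regression.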

[2] = tested on: human platelet-rich plasma (PRP); assay: Inhibition of Convulxin-mediated platelet aggregation in vitro (PRP); type: cell-based; conditions: Table 4, Convulxin-induced aggregation in human PRP, unit inferred
Method: The ability for candidate molecules to inhibit syk-mediated platelet functions are tested by measuring the inhibition the GPVI-specific agonist Convulxin-induced human platelet calcium-mobilization or aggregation. Calcium-mobilization is assessed in human washed platelets in a 96-well microtiter format.
Inhibition of Convulxin-Mediated Platelet Aggregation In Vitro
Platelet-rich plasma (PRP) is prepared by centrifugation of whole blood at 160×g for 20 minutes at room temperature. The PRP layer is removed, transferred to a new tube, and the platelet count is adjusted, if advantageous, to achieve a platelet concentration of ˜3×10^8 platelets/ml using platelet-poor plasma (PPP). PPP is prepared by centrifugation of the remaining blood sample (after removal of PRP) for 20 minutes at 800×g. This preparation of PRP can subsequently be used for aggregation assays in either a 96-well plate or standard cuvette aggregometry.
Inhibition of Convulxin-induced aggregation is determined in 96-well flat-bottom microtiter plates using a microtiter plate shaker and plate reader similar to the procedure described by Frantantoni et al., Am. J. Clin. Pathol. […] All steps are performed at room temperature. For 96-well plate aggregation using platelet-rich plasma (PRP), the total reaction volume of 0.2 ml/well includes 190 μl of PRP (˜3×10^8 platelets/ml, see above), and 5 μl of either serial dilution of test compounds in 30% DMSO or buffer (for control wells). After 20 minutes preincubation at room temperature 5 μl of 320 ng/ml Convulxin agonist solution is added to each well to give a final concentration of 8 ng/ml Convulxin. The plates are then agitated for 5 min on a microtiter plate shaker and the 5 minute reading is obtained in the microtitre plate reader (Softmax, Molecular Devices, Menlo Park, Calif.). Aggregation is calculated from the decrease of OD at 650 nm at t=5 minutes. IC50s were derived by non-linear regression analysis.
Inhibition of Convulxin-induced aggregation was also determined for cuvette light transmittance aggregation assays, serial dilutions (1:2) of test compounds were prepared in 30% DMSO in a 96 well V-bottom plate (final DMSO concentration in the cuvette was 0.3%). […] IC50s were derived by non-linear regression analysis.

[3] = Table 3, read-out: Syk IC50 code

T2 sequence (P52333 781-1124 limits assumed): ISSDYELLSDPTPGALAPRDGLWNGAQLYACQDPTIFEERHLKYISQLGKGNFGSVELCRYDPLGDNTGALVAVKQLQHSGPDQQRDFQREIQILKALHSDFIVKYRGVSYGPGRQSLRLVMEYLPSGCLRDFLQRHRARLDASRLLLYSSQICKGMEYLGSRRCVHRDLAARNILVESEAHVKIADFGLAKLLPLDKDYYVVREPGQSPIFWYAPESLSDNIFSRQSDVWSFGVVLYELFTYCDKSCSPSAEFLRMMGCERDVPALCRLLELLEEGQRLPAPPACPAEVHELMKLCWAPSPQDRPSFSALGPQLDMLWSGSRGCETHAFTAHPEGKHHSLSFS
T3 sequence (P23458 whole entry): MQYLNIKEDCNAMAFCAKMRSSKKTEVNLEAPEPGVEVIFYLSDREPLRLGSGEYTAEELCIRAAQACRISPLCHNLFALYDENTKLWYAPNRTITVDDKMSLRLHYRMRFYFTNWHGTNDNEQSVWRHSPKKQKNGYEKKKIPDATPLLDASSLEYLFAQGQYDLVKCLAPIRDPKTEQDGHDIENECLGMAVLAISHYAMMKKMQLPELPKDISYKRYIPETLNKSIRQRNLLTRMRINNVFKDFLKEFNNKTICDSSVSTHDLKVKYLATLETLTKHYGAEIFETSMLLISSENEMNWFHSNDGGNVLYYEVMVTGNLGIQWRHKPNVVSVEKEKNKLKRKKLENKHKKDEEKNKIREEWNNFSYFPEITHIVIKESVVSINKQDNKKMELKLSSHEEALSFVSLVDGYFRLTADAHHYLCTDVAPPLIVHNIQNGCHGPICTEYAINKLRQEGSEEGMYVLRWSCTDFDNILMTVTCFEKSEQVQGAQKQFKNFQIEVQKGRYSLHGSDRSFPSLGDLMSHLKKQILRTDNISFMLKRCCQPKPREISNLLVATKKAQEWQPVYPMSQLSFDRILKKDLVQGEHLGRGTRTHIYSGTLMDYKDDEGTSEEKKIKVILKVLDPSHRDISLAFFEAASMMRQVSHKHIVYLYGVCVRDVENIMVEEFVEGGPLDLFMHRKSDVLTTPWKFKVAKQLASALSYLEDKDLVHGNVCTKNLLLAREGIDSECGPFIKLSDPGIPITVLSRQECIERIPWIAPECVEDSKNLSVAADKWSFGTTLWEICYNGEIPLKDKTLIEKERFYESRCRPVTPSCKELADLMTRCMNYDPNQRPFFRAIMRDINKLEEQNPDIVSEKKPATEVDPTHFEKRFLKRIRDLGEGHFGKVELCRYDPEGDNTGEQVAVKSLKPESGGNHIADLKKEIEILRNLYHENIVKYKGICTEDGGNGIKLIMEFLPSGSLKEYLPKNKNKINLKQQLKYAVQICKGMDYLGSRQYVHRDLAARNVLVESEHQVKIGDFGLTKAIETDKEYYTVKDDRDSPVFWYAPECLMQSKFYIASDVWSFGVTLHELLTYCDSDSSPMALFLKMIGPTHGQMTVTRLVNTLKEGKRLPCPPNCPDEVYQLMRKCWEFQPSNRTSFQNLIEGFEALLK
T1 sequence (O60674 whole entry): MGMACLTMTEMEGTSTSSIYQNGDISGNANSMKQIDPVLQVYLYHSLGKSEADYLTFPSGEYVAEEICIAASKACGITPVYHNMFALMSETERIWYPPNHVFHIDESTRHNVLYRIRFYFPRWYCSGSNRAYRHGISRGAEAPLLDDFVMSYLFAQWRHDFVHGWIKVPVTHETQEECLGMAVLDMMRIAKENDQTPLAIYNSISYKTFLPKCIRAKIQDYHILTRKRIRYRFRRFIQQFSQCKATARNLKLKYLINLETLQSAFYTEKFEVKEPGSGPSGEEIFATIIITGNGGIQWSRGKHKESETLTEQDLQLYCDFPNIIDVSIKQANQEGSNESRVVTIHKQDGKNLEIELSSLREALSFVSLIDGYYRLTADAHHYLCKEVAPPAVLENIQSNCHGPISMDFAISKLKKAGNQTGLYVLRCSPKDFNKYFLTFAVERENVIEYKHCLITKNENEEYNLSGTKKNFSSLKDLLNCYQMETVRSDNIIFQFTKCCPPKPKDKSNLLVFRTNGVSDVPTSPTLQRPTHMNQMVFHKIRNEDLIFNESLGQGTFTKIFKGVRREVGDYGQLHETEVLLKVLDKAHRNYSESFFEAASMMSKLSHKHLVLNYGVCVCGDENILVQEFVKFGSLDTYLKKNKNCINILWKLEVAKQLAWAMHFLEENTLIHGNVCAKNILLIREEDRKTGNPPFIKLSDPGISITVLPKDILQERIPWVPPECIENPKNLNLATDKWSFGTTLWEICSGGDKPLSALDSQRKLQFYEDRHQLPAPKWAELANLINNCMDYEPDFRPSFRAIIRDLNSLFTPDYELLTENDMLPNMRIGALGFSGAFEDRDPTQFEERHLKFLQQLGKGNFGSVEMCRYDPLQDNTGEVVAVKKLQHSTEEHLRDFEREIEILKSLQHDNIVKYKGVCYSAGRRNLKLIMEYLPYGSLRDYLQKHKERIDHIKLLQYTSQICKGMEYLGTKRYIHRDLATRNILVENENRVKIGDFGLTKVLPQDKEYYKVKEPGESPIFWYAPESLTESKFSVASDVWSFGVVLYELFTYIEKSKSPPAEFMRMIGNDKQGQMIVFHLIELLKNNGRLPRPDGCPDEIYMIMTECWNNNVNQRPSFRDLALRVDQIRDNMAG

Structure (SMILES)	IC50 [1, 3] [µM]	IC50 ([1]; Table 4, read-out: syk IC50) [µM]	IC50 [2] [µM]	further results
CS(=O)(=O)N1CCN(c2ccc(Nc3nc(Nc4cccc(S(N)(=O)=O)c4)c4cc[nH]c4n3)cc2)CC1	–	–	–	IC50 (JAK2): 0.1 to 1 µM; IC50 (Purified human JAK3): 0.1 to 1 µM; IC50 (JAK1): > 1 µM
Cc1c[nH]c2nc(Nc3ccc4cn[nH]c4c3)nc(NC3CCC3)c12	–	–	–	IC50 (JAK2): 0.1 to 1 µM; IC50 (Purified human JAK3): 0.1 to 1 µM; IC50 (JAK1): > 1 µM
CN(C)C(=O)C1CCN(c2ccc(Nc3nc(NC4CC4)c4cc[nH]c4n3)cc2)CC1	–	–	–	inhibition at 0.3 µM (Purified human JAK3; 10 μM ATP): 82%
CC(=O)N1CCN(c2ccc(Nc3nc(N4CCC[C@H](N)C4)c4cc[nH]c4n3)cc2)CC1 [(S)-1-(4-(4-(4-(3-aminopiperidin-1-yl)-7H-pyrrolo[2,3-d]pyrimidin-2-ylamino)phenyl)piperazin-1-yl)ethanone]	–	0.1 to 1	13.8	–
NC(=O)C1CCCN(c2nc(Nc3ccc(N4CCNCC4)cc3)nc3[nH]ccc23)C1 (centres unmarked) [Example 8, 1-(2-(4-(piperazin-1-yl)phenylamino)-7H-pyrrolo[2,3-d]pyrimidin-4-yl)piperidine-3-carboxamide]	–	0.1 to 1	25.3	–
CC(=O)N1CCN(c2ccc(Nc3nc(N4CCCC(C(N)=O)C4)c4cc[nH]c4n3)cc2)CC1 (centres unmarked) [Example 9, 1-(2-(4-(4-acetylpiperazin-1-yl)phenylamino)-7H-pyrrolo[2,3-d]pyrimidin-4-yl)piperidine-3-carboxamide]	–	0.1 to 1	12.3	–
NCC1CCN(c2nc(Nc3ccc(N4CCNCC4)cc3)nc3[nH]ccc23)CC1 [Example 10, 4-(4-(aminomethyl)piperidin-1-yl)-N-(4-(piperazin-1-yl)phenyl)-7H-pyrrolo[2,3-d]pyrimidin-2-amine]	–	0.001 to 0.01	33.2	–
CC(=O)N1CCN(c2ccc(Nc3nc(N4CCC(CN)CC4)c4cc[nH]c4n3)cc2)CC1 [Example 11, 1-(4-(4-(4-(4-(aminomethyl)piperidin-1-yl)-7H-pyrrolo[2,3-d]pyrimidin-2-ylamino)phenyl)piperazin-1-yl)ethanone]	–	0.001 to 0.01	5.28	–
CC(=O)N1CCN(c2ccc(Nc3nc(N4CCC(CN)CC4)c4c(C#N)c[nH]c4n3)cc2)CC1 [Example 14, 2-(4-(4-acetylpiperazin-1-yl)phenylamino)-4-(4-(aminomethyl)piperidin-1-yl)-7H-pyrrolo[2,3-d]pyrimidine-5-carbonitrile]	0.01 to 0.1	0.01 to 0.1	50	–
CC(=O)N1CCN(c2ccc(Nc3nc(N4CCC(CN)CC4)c4nc[nH]c4n3)cc2)CC1 [Example 15, 1-(4-(4-(6-(4-(aminomethyl)piperidin-1-yl)-9H-purin-2-ylamino)phenyl)piperazin-1-yl)ethanone]	0.01 to 0.1	0.01 to 0.1	50	–
NCC1CCN(c2nc(Nc3ccc4cn[nH]c4c3)ncc2F)CC1 [Example 16, N-(4-(4-(aminomethyl)piperidin-1-yl)-5-fluoropyrimidin-2-yl)-1H-indazol-6-amine]	–	0.01 to 0.1	0.295	–
CC(=O)N1CCN(c2ccc(Nc3ncc(F)c(N4CCC(CN)CC4)n3)cc2)CC1 [Example 18, 1-(4-(4-(4-(4-(aminomethyl)piperidin-1-yl)-5-fluoropyrimidin-2-ylamino)phenyl)piperazin-1-yl)ethanone]	–	0.01 to 0.1	0.195	–
CC(=O)N(C)c1ccc(Nc2ncc(F)c(N3CCC(CN)CC3)n2)cc1 [Example 29, N-(4-(4-(4-(aminomethyl)piperidin-1-yl)-5-fluoropyrimidin-2-ylamino)phenyl)-N-methylacetamide]	–	0.01 to 0.1	0.316	–
NCC1CCN(c2nc(Nc3ccc(C(N)=O)cc3)ncc2F)CC1 [Example 31, 4-(4-(4-(aminomethyl)piperidin-1-yl)-5-fluoropyrimidin-2-ylamino)benzamide]	–	0.01 to 0.1	0.346	–
NCC1CCN(c2nc(Nc3ccc4c(c3)CCC(=O)N4)ncc2F)CC1 [Example 33, 6-(4-(4-(aminomethyl)piperidin-1-yl)-5-fluoropyrimidin-2-ylamino)-3,4-dihydroquinolin-2(1H)-one]	–	0.01 to 0.1	0.336	–
CC(=O)N1CCN(c2ccc(Nc3ncc(F)c(N4CCC(NC(=O)CC#N)CC4)n3)cc2)CC1 [Example 136, N-(1-(2-(4-(4-acetylpiperazin-1-yl)phenylamino)-5-fluoropyrimidin-4-yl)piperidin-4-yl)-2-cyanoacetamide]	> 1	–	–	–
CC(=O)N1CCN(c2ccc(Nc3ncc(F)c(N4CCN(C(=O)CC#N)CC4)n3)cc2)CC1 [Example 137, 3-(4-(2-(4-(4-acetylpiperazin-1-yl)phenylamino)-5-fluoropyrimidin-4-yl)piperazin-1-yl)-3-oxopropanenitrile]	> 1	–	–	–
NCC1CCN(c2nc(Nc3ccc4c(c3)CCC(=O)N4)ncc2-c2ccncc2)CC1 [Example 138, 6-(4-(4-(aminomethyl)piperidin-1-yl)-5-(pyridin-4-yl)pyrimidin-2-ylamino)-3,4-dihydroquinolin-2(1H)-one]	> 1	–	–	–
c1cc2c(NC3CC3)nc(Nc3ccc4cn[nH]c4c3)nc2[nH]1 [drawing 204]	–	–	–	IC50 (JAK2): 0.1 to 1 µM; IC50 (Purified human JAK3): 0.1 to 1 µM; IC50 (JAK1): 0.1 to 1 µM
CC(=O)c1c[nH]c2nc(Nc3ccc4cn[nH]c4c3)nc(NC3CC3)c12 [drawing 207]	–	–	–	IC50 (JAK2): > 1 µM; IC50 (Purified human JAK3): > 1 µM; IC50 (JAK1): > 1 µM
CC(=O)N1CCN(c2ccc(Nc3nc(N4CCC(CN)CC4)c4cc[nH]c4n3)cc2)CC1 [drawing 208]	–	–	–	IC50 (JAK2): 0.1 to 1 µM; IC50 (Purified human JAK3): 0.1 to 1 µM; IC50 (JAK1): 0.1 to 1 µM
c1cc2c(NC3CC3)nc(Nc3ccc4cn[nH]c4c3)nc2[nH]1 [drawing 213]	–	–	–	inhibition at 0.3 µM (Purified human JAK3; 10 μM ATP): 41%; inhibition at 1 µM (Purified human JAK3; 1 μM compound, 10 μM ATP): 77%

More lines, main results first:

IC50 [1, 3] [µM]	Structure (SMILES)	IC50 ([1]; Table 4, read-out: syk IC50) [µM]	IC50 [2] [µM]	further results
0.1 to 1	NCC1CCN(c2nc(Nc3ccc4c(c3)CCC(=O)N4)ncc2C2CC2)CC1 [Example 139, 6-(4-(4-(aminomethyl)piperidin-1-yl)-5-cyclopropylpyrimidin-2-ylamino)-3,4-dihydroquinolin-2(1H)-one]	–	–	–
0.1 to 1	N[C@H]1CC[C@@H](Nc2nc(Nc3ccc4c(c3)CCC(=O)N4)ncc2F)CC1 [Example 140, 6-(4-((1s,4s)-4-aminocyclohexylamino)-5-fluoropyrimidin-2-ylamino)-3,4-dihydroquinolin-2(1H)-one]	–	–	–
0.1 to 1	NC(=O)c1ccc(Nc2ncc(F)c(N[C@H]3CC[C@@H](N)CC3)n2)cc1 [Example 141, 4-(4-((1s,4s)-4-aminocyclohexylamino)-5-fluoropyrimidin-2-ylamino)benzamide]	–	–	–
0.1 to 1	CC(=O)N1CCN(c2ccc(Nc3ncc(F)c(N[C@H]4CC[C@@H](N)CC4)n3)cc2)CC1 [Example 142, 1-(4-(4-(4-((1s,4s)-4-aminocyclohexylamino)-5-fluoropyrimidin-2-ylamino)phenyl)piperazin-1-yl)ethanone]	–	–	–
> 1	N[C@H]1CC[C@@H](Nc2nc(Nc3ccc4c(c3)CCC(=O)N4)ncc2-c2ccncc2)CC1 [Example 143, 6-(4-((1s,4s)-4-aminocyclohexylamino)-5-(pyridin-4-yl)pyrimidin-2-ylamino)-3,4-dihydroquinolin-2(1H)-one]	–	–	–
0.01 to 0.1	N[C@H]1CC[C@@H](Nc2nc(Nc3ccc4c(c3)CCC(=O)N4)ncc2C2CC2)CC1 [Example 144, 6-(4-((1s,4s)-4-aminocyclohexylamino)-5-cyclopropylpyrimidin-2-ylamino)-3,4-dihydroquinolin-2(1H)-one]	–	–	–
